Assay results reported in ChEMBL document CHEMBL4152208, “Synthesis and structure-activity relationships of quinolinone and quinoline-based P2X7 receptor antagonists and their anti-sphere formation activities in glioblastoma cells” (Eur J Med Chem, 2018).
Each block holds one compound with its values, some of them ahead of it. The source made the active and inactive calls. The calls are words filed in the database; no cut-off is given here.

Legend:
[1] = biological target: P2X purinoceptor 1 (Rattus norvegicus, UniProt P47824); assay: Antagonist activity at wild type His6 tagged rat P2X1 receptor expressed in Xenopus laevis oocytes assessed as inhibition of alphabeta-me ATP-induced calcium flux at -60 mV holding potential by two electrode voltage clamp method; type: cell-based
[2] = biological target: T1, P2X purinoceptor 1 (Rattus norvegicus, UniProt P47824); assay: Antagonist activity at P2X1 receptor in rat vas deferens assessed as inhibition of alphabeta me-ATP-induced response
T1 sequence (P47824 whole entry): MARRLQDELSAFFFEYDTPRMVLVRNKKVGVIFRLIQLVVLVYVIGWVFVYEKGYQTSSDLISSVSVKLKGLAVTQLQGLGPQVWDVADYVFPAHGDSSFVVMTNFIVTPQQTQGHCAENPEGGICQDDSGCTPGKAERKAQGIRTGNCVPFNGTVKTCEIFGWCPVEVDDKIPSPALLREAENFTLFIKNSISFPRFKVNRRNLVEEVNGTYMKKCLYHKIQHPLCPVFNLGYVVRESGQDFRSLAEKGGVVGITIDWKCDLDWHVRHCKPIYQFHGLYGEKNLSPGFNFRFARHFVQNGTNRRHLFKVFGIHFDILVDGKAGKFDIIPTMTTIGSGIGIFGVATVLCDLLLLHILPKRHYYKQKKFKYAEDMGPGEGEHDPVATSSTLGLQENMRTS

[3] = biological target: T2, P2X purinoceptor 7 (Homo sapiens) (UniProt Q99572); assay: Antagonist activity at human P2X7 receptor expressed in HEK293 cells assessed as inhibition of BzATP-induced EtBr uptake at 1 uM after 2 hrs by fluorescence assay relative to control; type: cell-based
T2 sequence (whole entry): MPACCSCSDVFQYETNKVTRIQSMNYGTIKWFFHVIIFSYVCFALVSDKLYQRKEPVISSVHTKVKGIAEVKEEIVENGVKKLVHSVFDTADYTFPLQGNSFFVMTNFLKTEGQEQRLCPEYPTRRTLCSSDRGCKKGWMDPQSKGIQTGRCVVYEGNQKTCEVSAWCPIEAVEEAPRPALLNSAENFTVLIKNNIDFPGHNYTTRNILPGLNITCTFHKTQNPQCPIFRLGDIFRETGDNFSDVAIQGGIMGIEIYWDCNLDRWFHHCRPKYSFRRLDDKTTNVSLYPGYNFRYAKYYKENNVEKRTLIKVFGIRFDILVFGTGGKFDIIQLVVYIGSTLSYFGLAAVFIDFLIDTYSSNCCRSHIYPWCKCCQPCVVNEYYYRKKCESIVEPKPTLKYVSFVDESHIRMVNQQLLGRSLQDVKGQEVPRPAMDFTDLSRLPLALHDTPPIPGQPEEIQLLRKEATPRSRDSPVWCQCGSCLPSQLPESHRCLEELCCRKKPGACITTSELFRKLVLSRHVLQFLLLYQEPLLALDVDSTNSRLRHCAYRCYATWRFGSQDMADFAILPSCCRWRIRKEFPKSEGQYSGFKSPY

[4] = species: Homo sapiens; assay: Antiproliferative activity against human TS15-88 cells at 50 uM after 24 hrs by MTS assay; type: functional, cell-based
[5] = Cytotoxicity against HEK293 cells expressing human P2X7 receptor assessed as cell survival at 10 uM by MTT assay relative to control; type: cell-based; conditions: read-out: Survival
[6] = biological target: T3, P2X purinoceptor 7 (Homo sapiens, UniProt Q99572); assay: Antagonist activity at human P2X7 receptor expressed in HEK293 cells assessed as inhibition of BzATP-induced EtBr uptake after 2 hrs by fluorescence assay relative to control; type: cell-based
T3 sequence (Q99572 whole entry): T2 sequence (whole entry)

[7] = Metabolic stability in human liver microsomes assessed as parent compound remaining at 1 uM up to 30 mins in presence of NADPH by LC-MS/MS analysis; type: ADME, microsome; conditions: read-out: Stability
[8] = species: Homo sapiens; assay: Inhibition of neurosphere formation in human TS15-88 cells assessed as decrease in sphere size at 50 uM after 5 days by microscopic analysis relative to control; type: functional
[9] = biological target: T3, P2X purinoceptor 7; assay: Antagonist activity at P2X7 in LPS/IFN gamma differentiated human THP-1 cells assessed as inhibition of BzATP-induced IL-1beta release preincubated for 30 mins followed by BzATP stimulation for 30 mins by ELISA; type: cell-based
[10] = Metabolic stability in rat liver microsomes assessed as parent compound remaining at 1 uM up to 30 mins in presence of NADPH by LC-MS/MS analysis; type: ADME, microsome; conditions: read-out: Stability
[11] = Effective permeability of the compound at 50 uM after 4 hrs by BBB-PAMPA method; type: ADME; conditions: read-out: Peff
[12] = Kinetic solubility of the compound in PAMPA buffer at 50 uM by nepheolometry method; type: physicochemical
[13] = Kinetic solubility of the compound in PAMPA buffer at 12.5 uM by nepheolometry method; type: physicochemical
[14] = biological target: T2, P2X purinoceptor 7 (Homo sapiens); assay: Antagonist activity at human P2X7 receptor expressed in HEK293 cells assessed as inhibition of BzATP-induced EtBr uptake at 10 uM after 2 hrs by fluorescence assay relative to control; type: cell-based
[15] = Kinetic solubility of the compound in PAMPA buffer at 25 uM by nepheolometry method; type: physicochemical
[16] = Metabolic stability in mouse liver microsomes assessed as parent compound remaining at 1 uM up to 30 mins in presence of NADPH by LC-MS/MS analysis; type: ADME, microsome; conditions: read-out: Stability
[17] = biological target: T4, P2X purinoceptor 3 (Rattus norvegicus, UniProt P49654); assay: Antagonist activity at P2X3 receptor in rat DRG neurons at -70 mV holding potential by whole cell patch clamp method
T4 sequence (P49654 whole entry): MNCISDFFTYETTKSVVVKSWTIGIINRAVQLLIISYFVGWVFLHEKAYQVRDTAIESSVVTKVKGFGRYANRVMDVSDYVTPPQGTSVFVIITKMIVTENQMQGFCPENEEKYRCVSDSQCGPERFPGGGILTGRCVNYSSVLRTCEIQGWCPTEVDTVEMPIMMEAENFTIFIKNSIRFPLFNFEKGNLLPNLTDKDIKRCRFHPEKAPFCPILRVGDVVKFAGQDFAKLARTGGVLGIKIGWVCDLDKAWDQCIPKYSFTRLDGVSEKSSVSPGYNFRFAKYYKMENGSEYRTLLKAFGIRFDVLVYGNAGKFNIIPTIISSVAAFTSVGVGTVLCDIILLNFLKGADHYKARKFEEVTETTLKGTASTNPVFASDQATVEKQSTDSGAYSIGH

SMILES: Nc1c(S(=O)(=O)O)cc(Nc2ccc(S(=O)(=O)O)c(Nc3nc(Cl)nc(Cl)n3)c2)c2c1C(=O)c1ccccc1C2=O
IC50 [1]: 570 nM | IC50 [2]: 4700 nM

SMILES: O=C(CC12CC3CC(CC(C3)C1)C2)Nc1cccc2nc(-c3ccc(C(=O)O)cc3)ccc12
inhibition [3]: 87% | Activity [4]: inactive | viability at 10 µM [5]: 94% | IC50 [6]: 8 nM | remaining at 0.5 h, 1 µM [7]: 40.5% | inhibition [8]: inactive | IC50 [9]: 25 nM | remaining at 0.5 h, 1 µM [10]: 10.9% | Papp at 4 h, 50 µM [11]: 8.44 to 8.46 ×10⁻⁶ cm/s | Kinetic_solubility [12]: Soluble | Kinetic_solubility [13]: Soluble | inhibition [14]: 93% | Kinetic_solubility [15]: Soluble | remaining at 0.5 h, 1 µM [16]: 8.1%

IC50 [17]: 500 nM
SMILES: O=C(Nc1cc(C(=O)Nc2ccc(S(=O)(=O)O)cc2)cc(C(=O)Nc2ccc(S(=O)(=O)O)cc2)c1)Nc1cc(C(=O)Nc2ccc(S(=O)(=O)O)cc2)cc(C(=O)Nc2ccc(S(=O)(=O)O)cc2)c1
